Results: patent US8895745B2, “Bicyclic heterocyclic compounds as FGFR inhibitors” (Astex Therapeutics Limited, priority 2006, dated 2014)
Where a name gives a salt, the structure may show the parent alone. Read-outs that look alike come from different tables or passages of the source.

Key:
FGFR3 = FGFR3 (Homo sapiens (Human), UniProt P22607); test: FGFR3 in vitro kinase inhibitory activity assay (TRF, biotinylated Flt3 substrate); type: biochemical
Procedure: Enzymes (from Upstate) were prepared at 2× final concentration in 1× kinase assay buffer (as described below). Enzymes were then incubated with test compounds, biotinylated Flt3 substrate (biotin—DNEYFYV) (Cell Signalling Technology Inc.) and ATP. The reaction was allowed to proceed for 3 hours (FGFR3) or 2.5 hrs (PDGFR-beta) at room temperature on a plate shaker at 900 rpm before being stopped with 20 μl of 35 mM EDTA, pH 8 (FGFR3) or 55 mM EDTA, pH 8 (PDGFR-beta). […] The plate was then read on a Packard Fusion plate reader in TRF mode.
Kinase Assay buffers were:
A: 50 mM HEPES pH 7.5, 6 mM MnCl2, 1 mM DTT, 0.1% TritonX-100

LP-1 cell line = test: Cell-based pERK ELISA method, LP-1 cells; details: Homo sapiens
[1] = read-out: IC50 less than 1 μM or at least 50% inhibition of the FGFR3 activity at a concentration of 1 μM

Sequence of FGFR3 (P22607 23-806): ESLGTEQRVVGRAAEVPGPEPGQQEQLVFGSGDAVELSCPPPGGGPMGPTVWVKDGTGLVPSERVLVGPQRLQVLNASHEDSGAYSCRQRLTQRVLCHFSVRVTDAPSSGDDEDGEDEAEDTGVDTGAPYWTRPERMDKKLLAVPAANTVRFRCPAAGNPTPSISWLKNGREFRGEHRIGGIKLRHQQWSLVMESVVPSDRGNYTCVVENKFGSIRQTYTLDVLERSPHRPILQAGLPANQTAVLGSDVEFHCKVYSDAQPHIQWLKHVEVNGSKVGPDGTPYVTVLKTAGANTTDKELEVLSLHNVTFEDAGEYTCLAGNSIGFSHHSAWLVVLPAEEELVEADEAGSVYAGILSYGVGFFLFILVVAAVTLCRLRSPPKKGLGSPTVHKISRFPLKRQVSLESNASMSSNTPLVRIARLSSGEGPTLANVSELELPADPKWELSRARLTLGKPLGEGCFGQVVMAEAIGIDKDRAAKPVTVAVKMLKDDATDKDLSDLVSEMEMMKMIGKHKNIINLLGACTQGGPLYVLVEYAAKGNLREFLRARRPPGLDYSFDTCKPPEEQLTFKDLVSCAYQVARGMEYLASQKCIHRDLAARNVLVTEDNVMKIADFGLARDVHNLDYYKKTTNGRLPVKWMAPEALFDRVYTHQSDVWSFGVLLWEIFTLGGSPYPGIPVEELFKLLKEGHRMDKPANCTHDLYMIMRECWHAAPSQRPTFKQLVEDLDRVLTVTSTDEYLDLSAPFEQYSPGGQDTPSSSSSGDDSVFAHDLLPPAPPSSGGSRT

| SMILES | IC50 (FGFR3; [1]) [nM] | also measured |
| --- | --- | --- |
| Fc1ccc(-c2ccn3c(-c4ccc5[nH]ccc5c4)cnc3c2)cc1 [Example 70, 7-(4-Fluoro-phenyl)-3-(1H-indol-5-yl)-imidazo[1,2-a]pyridine formate salt] | < 1000 |  |
| COc1ccc(-c2ccc3ncc(-c4cccc(NC(C)=O)c4)n3c2)cc1 [Example 100, N-{3-[6-(4-Methoxy-phenyl)-imidazo[1,2-a]pyridin-3-yl]-phenyl}-acetamide formate salt] | < 1000 |  |
| COc1cncc(-c2ccc3ncc(-c4cccc(NC(C)=O)c4)n3c2)c1 [Example 101, N-{3-[6-(5-Methoxy-pyridin-3-yl)-imidazo[1,2-a]pyridin-3-yl]-phenyl}-acetamide] | < 1000 |  |
| Cc1c(-c2ccn3c(-c4cccc(NC(=O)NCC(F)(F)F)c4)cnc3c2)ncn1C [Example 374, 1-{3-[7-(1,5-Dimethyl-1H-imidazol-4-yl)-imidazo[1,2-a]pyridin-3-yl]-phenyl}-3-(2,2,2-trifluoro-ethyl)-urea] |  | inhibition at 0.001 µM (FGFR3; % inhibition at 0.001 μM, read-out: FGFR3 IC50 or % inhibition): 64%; IC50 (LP-1 cell line; LP-1, read-out: LP-1 pERK ELISA (μM)): 0.0084 µM |
| Cc1nc(C)n(-c2ccn3c(-c4cccc(NC(=O)NCC(F)(F)F)c4)cnc3c2)n1 [Example 414, 1-{3-[7-(3,5-Dimethyl-[1,2,4]triazol-1-yl)-imidazo[1,2-a]pyridin-3-yl]-phenyl}-3-(2,2,2-trifluoro-ethyl)-urea] | < 1000 | IC50 (FGFR3; read-out: IC50 less than 10 μM or at least 50% inhibition of the FGFR3 activity at a concentration of 10 μM): < 10000 nM; IC50 (LP-1 cell line; LP-1, read-out: IC50 less than 1 μM or at least 50% inhibition at a concentration of 1 μM, LP-1 pERK ELISA): < 1 µM |
